T1: DC-SIGN (Homo sapiens, UniProt Q9NNX6)
T1 construct: The extracellular domains of lectin receptors, TREMs and TLTs were cloned by the reverse-transcriptase polymerase chain reaction (RT-PCR); made in house; host or cells: 293-F (FreeStyle 293) cells
T1 sequence (Q9NNX6 59-404 limits assumed): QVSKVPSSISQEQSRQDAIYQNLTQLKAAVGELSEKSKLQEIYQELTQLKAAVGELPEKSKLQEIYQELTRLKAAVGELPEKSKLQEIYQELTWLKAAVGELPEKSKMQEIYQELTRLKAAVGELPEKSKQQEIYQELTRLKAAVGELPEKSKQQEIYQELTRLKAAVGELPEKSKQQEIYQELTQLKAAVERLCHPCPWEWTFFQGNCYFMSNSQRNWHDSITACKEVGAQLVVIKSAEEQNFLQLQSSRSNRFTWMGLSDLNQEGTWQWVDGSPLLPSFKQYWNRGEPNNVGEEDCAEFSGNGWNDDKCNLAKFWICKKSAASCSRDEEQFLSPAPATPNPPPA

T2: MMR.Fc (Homo sapiens, UniProt P22897)
T2 construct: The extracellular domains of lectin receptors, TREMs and TLTs were cloned by the reverse-transcriptase polymerase chain reaction (RT-PCR); made in house; host or cells: 293-F (FreeStyle 293) cells
T2 sequence (P22897 19-1389 limits assumed): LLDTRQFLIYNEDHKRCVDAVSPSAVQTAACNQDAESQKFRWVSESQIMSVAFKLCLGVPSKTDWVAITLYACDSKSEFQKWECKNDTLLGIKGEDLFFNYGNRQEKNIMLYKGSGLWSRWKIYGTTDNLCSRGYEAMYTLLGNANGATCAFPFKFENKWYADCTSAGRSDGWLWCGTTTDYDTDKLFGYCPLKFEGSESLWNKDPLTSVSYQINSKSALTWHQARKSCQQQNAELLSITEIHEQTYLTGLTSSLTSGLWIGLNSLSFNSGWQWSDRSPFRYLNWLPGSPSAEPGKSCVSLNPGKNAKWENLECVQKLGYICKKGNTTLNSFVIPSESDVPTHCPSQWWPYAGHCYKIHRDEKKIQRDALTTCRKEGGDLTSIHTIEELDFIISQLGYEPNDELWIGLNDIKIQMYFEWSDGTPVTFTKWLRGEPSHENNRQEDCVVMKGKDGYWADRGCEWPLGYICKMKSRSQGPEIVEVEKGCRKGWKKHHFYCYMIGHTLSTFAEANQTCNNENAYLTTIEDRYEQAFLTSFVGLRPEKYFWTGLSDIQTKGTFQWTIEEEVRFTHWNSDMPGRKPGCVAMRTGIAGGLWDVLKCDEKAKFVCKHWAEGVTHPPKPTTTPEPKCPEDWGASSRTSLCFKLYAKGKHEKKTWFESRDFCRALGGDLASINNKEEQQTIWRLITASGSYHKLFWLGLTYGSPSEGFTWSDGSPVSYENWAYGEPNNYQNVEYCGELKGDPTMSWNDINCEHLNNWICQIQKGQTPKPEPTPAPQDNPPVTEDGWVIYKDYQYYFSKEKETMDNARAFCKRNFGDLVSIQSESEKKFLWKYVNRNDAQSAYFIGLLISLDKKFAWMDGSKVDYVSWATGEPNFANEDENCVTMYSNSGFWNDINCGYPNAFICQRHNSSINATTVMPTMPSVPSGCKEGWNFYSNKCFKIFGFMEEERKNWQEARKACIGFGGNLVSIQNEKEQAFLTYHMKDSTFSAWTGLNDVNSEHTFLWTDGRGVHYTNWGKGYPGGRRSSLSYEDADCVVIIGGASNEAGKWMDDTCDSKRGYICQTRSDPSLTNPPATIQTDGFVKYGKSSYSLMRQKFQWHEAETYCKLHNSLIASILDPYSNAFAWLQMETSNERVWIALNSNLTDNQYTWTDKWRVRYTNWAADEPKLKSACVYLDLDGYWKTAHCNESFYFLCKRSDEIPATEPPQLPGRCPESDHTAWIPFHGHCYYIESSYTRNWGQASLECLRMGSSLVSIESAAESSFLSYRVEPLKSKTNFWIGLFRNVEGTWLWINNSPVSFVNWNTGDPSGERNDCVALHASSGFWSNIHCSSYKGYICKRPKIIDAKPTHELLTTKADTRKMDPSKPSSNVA

T3: Dectin-1 (Homo sapiens, UniProt Q9BXN2)
T3 construct: The extracellular domains of lectin receptors, TREMs and TLTs were cloned by the reverse-transcriptase polymerase chain reaction (RT-PCR); made in house; host or cells: 293-F (FreeStyle 293) cells
T3 sequence (Q9BXN2 66-247 limits assumed): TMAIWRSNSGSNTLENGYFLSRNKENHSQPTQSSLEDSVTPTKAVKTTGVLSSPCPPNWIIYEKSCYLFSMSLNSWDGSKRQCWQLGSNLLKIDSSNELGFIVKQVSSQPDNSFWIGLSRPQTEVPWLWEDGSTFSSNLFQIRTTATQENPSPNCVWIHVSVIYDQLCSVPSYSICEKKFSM

T4: CLEC-6 (Homo sapiens, UniProt Q8WXI8)
T4 construct: The extracellular domains of lectin receptors, TREMs and TLTs were cloned by the reverse-transcriptase polymerase chain reaction (RT-PCR); made in house; host or cells: 293-F (FreeStyle 293) cells
T4 sequence (Q8WXI8 39-215 limits assumed): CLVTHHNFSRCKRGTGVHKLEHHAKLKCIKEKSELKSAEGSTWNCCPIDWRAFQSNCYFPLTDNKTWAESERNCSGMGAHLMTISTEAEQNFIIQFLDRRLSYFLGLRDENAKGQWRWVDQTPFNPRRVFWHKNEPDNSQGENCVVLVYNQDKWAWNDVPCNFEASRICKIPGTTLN

T5: DVLR1/CLEC5A (Homo sapiens, UniProt Q9NY25)
T5 construct: endogenous in cells; host or cells: human CD14+ PBMC-derived macrophages (M-CSF, 6 days)
T5 sequence (Q9NY25 1-188): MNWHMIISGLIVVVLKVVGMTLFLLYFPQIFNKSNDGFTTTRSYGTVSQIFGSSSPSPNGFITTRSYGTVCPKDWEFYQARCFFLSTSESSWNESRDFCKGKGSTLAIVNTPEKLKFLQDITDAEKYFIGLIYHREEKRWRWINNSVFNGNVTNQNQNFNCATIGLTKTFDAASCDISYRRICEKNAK


Assays:
Langerin = target: T6, Langerin (Homo sapiens, UniProt Q9UJ71); assay: Sugar competition EIA, Fc.Langerin binding to GLPS-F3; settings: sugar 1 mg/ml
T6 construct: The extracellular domains of lectin receptors, TREMs and TLTs were cloned by the reverse-transcriptase polymerase chain reaction (RT-PCR); made in house; host or cells: 293-F (FreeStyle 293) cells
T6 sequence (Q9UJ71 65-328 limits assumed): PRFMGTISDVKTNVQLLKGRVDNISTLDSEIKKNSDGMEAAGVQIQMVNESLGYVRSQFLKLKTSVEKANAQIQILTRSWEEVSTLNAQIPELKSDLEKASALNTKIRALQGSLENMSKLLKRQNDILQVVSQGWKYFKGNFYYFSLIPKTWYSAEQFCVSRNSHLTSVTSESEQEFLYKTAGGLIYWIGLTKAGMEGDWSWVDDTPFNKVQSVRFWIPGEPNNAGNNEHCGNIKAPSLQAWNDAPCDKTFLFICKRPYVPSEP
Method: (§1) The interaction between GLPS-F3 and receptor.Fc was then tested. Unbiotinylated GLPS-F3 was immobilized at 100 ng/well as described above, and 100 μL receptor.Fc fusion protein (1 μg/ml in 2 mM MgCl2/2 mM CaCl2/1% BSA/TBST) was added into each well and incubated for 1 hour at room temperature. After washing with TBST, wells were incubated with peroxidase-conjugated goat anti-human IgG Ab (1:5000 dilution, Jackson ImmunoResearch Laboratories) in blocking buffer at room temperature for 30 min. Wells were incubated with 100 μL TMB substrate for 15 min after TBST washing and read at 450 nm in a Fusion plate reader (Perkin Elmer). The results were normalized with respect to Fc.Dectin-1 binding (Dectin-1 is a known lectin receptor that binds to β-1,3-glucan which is the backbone found in GLPS-F3). FIG. 6B depicts in graphical form the affinity of each receptor for GLPS-F3 relative to Dectin-1. […] There was also weaker but positive GLPS-F3 binding ability (25-50% binding intensity compared to Fc.dectin-1) found in Fc.NKG2D, Fc.MINCLE, Fc.mKCR, DCAL1.Fc, DEC205.Fc, Endo180.Fc and NKp30(NCR3).Fc.
(§2) To understand the interaction of GLPS-F3 with specific innate immunity receptors, the polysaccharides mannan and β-glucan and the monosaccharides D-mannose (Man), D-glucose (Glc), N-acetyl-glucosamine (GlcNAc), D-galactose (Gal), N-acetyl-galactosamine (GalNAc), L-fucose (Fuc) and sialic acid, were used in a competition assay. […] The assays were carried out as in Example 9, with the addition of 1 mg/ml of each polysaccharide or monosaccharide.

DC-SIGN = target: T1, DC-SIGN; assay: Sugar competition EIA, Fc.DC-SIGN binding to GLPS-F3; settings: sugar 1 mg/ml
Method: as §1, §2

MMR.Fc = target: T2, MMR.Fc; assay: Sugar competition EIA, MMR.Fc binding to GLPS-F3; settings: sugar 1 mg/ml
Method: as §1, §2

Dectin-1 = target: T3, Dectin-1; assay: Sugar competition EIA, Fc.Dectin-1 binding to GLPS-F3; settings: sugar 1 mg/ml
Method: as §1, §2

CLEC-6 = target: T4, CLEC-6; assay: Sugar competition EIA, Fc.CLEC-6 binding to GLPS-F3; settings: sugar 1 mg/ml
Method: as §1, §2

TLR4.Fc = target: T7, TLR4.Fc (Homo sapiens, UniProt O00206); assay: Sugar competition EIA, TLR4.Fc binding to GLPS-F3; settings: sugar 1 mg/ml
T7 construct: The extracellular domains of several innate immunity receptors from immune cells were cloned by reverse-transcription polymerase chain reaction (RT-PCR); made in house; host or cells: 293-F (FreeStyle 293) cells
T7 sequence (O00206 24-631 limits assumed): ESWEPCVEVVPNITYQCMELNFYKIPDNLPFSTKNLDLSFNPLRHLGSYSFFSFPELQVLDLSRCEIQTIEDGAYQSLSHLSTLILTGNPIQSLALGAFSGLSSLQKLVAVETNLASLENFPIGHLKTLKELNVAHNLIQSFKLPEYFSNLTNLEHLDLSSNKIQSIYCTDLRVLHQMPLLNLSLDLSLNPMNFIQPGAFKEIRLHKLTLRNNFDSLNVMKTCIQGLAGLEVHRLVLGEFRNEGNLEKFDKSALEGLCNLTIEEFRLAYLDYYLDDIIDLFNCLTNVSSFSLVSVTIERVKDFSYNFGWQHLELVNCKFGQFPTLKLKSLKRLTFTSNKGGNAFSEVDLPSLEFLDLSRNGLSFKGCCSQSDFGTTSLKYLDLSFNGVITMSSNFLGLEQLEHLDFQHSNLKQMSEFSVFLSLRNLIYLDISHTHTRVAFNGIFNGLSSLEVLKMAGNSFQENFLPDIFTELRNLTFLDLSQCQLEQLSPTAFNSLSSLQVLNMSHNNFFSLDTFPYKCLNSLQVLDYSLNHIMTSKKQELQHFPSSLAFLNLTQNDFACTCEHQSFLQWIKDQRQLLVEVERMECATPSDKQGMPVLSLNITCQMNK
Method: as §1, §2

CLEC-2 = target: T8, CLEC-2 (Homo sapiens, UniProt Q9P126); assay: Sugar competition EIA, Fc.CLEC-2 binding to GLPS-F3; settings: sugar 1 mg/ml
T8 construct: The extracellular domains of lectin receptors, TREMs and TLTs were cloned by the reverse-transcriptase polymerase chain reaction (RT-PCR); made in house; host or cells: 293-F (FreeStyle 293) cells
T8 sequence (Q9P126 55-229 limits assumed): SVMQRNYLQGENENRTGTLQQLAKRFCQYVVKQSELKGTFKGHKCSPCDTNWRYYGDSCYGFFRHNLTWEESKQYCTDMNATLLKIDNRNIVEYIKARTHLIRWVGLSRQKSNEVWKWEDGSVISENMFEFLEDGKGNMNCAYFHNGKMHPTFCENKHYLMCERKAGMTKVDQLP
Method: as §1, §2

DVLR1/CLEC5A = target: T5, DVLR1/CLEC5A; assay: DV-induced TNF-α secretion from human macrophages with anti-DVLR1/CLEC5A mAbs; format: cell-based
From the text: Monoclonal antibodies against DVLR1/CLEC5A were generated using standard techniques. Briefly, mice were immunized with DVLR-1.Fc fusion protein, and hybridomas were formed by fusing spienocytes from the mice with P3/NSI/1-Ag4-1 [NS-1] myeloma cells (ATCC TIB-18). Among the mAbs generated, clone 9B12, the subclones of 3E12 (clones 3E12A2, 3E12C1, 3E12G9), and clone 8H8F5 suppressed TNF-α release from macrophages after infection with DEN1 (strain 766733A), DEN2 (strain PL046), DEN3 (strain H-87), and DEN4 (strain 866146A) in a dose-dependent manner. […] In accordance with standard nomenclature, each antibody is referred to via the clone number of the hybridoma that secretes it.
According to embodiments illustrated in FIG. 19, DVLR1/CLEC5A is critical for DV-mediated TNF-α, but not IFN-α, secretion. More specifically, FIG. 19a illustrates the dose-dependency of DV and UV-DV induced TNF-α secretion by macrophages measured by ELISA at 6 h and 12 h p.i. FIG. 19b illustrates the kinetics of TNF-α expression after DV infection (m.o.i.=5). FIG. 19c illustrates the effects of DVLR1/CLEC5A and DC-SIGN shRNAs on the secretion of TNF-α, IL-6, MIP1-α, IL-8, IP-10, and IFN-α from DV-infected macrophages (m.o.i.=5). In FIG. 19d, knockdown experiments with receptor specific shRNAs illustrating that DV-induced IFN-α secretion is via the TLR7-MyD88 pathway and TNF-α secretion is via DVLR1/CLEC5A-TLR7-MyD88 pathway. FIG. 19e illustrates antagonistic anti-DVLR1/CLEC5A mAbs inhibiting TNF-α secretion in response to DV serotypes 1-4 is inhibited (see Table 3).
M.R. mAb (anti-mannose receptor mAb; mIgG1) and murine IgM (mIgM) were used as negative controls. In both FIG. 19d and FIG. 19e, macrophages were infected with DV (m.o.i.=5) and harvested at 36 h p.i. for cytokine assays. Data are expressed as mean±s.d. of three independent experiments (using material from at least three different donors). Two-tailed, Student's t-tests were performed. “ND” represents not detected.

[1] = antibody 10 μg/sample, p vs isotype control, m.o.i.=5, 36 h p.i.

Row | Molecule | Percentage of binding of Langerin Fc fusion to GLPS-F3 relative to binding in absence of sugar competitor (Langerin) | Percentage of binding of DC-SIGN Fc fusion to GLPS-F3 relative to binding in absence of sugar competitor (DC-SIGN) | Percentage of binding of MMR.Fc to GLPS-F3 relative to binding in absence of sugar competitor (MMR.Fc) | Percentage of binding of Dectin-1 Fc fusion to GLPS-F3 relative to binding in absence of sugar competitor (Dectin-1) | Percentage of binding of CLEC-6 Fc fusion to GLPS-F3 relative to binding in absence of sugar competitor (CLEC-6) | Percentage of binding of TLR4.Fc to GLPS-F3 relative to binding in absence of sugar competitor (TLR4.Fc) | Percentage of binding of CLEC-2 Fc fusion to GLPS-F3 relative to binding in absence of sugar competitor (CLEC-2) | Antagonistic DV1 (suppression of DV-induced TNF-α secretion) (DVLR1/CLEC5A; [1]) | Antagonistic DV2 (suppression of DV-induced TNF-α secretion) (DVLR1/CLEC5A; [1]) | Antagonistic DV3 (suppression of DV-induced TNF-α secretion) (DVLR1/CLEC5A; [1]) | Antagonistic DV4 (suppression of DV-induced TNF-α secretion) (DVLR1/CLEC5A; [1]) | TNF-α release from macrophages after infection with DEN1, DEN2, DEN3 and DEN4 (DVLR1/CLEC5A; dose-dependent manner, ELISA of culture supernatants)
1 | CC(=O)N[C@H]1C(O)O[C@H](CO)[C@H](O)[C@@H]1O (stereo partly drawn) [GalNAc, N-acetyl-galactosamine] | 97 ± 0.7% | 110 ± 3.1% | 80 ± 4.2% | 88 ± 2.6% | 96 ± 2.4% | 95 ± 4.1% | 110 ± 11.4% | – | – | – | – | –
2 | 3E12A2: anti-human DVLR1/CLEC5A monoclonal antibody, subclone of 3E12; VH SEQ ID NO: 60, VL SEQ ID NO: 61 (antibody, V domains shown) VH: QVQLEESGPELVKPGASVKLSCKASGYTFTEYIIHWVKQRSGQGLEWIGWFYPGSGSIKYNEKFKDKATLTADKSSSTVYMELSGLTSEDSAVYFCARHDGYSYFDYWGQGTTLTV VL: QSPSSLAVSAGEKVTMSCKSSQSLLNSRTRKNYLAWYQQKPGQSPKLLIYWASTRESGVPDRFTGSGSGTDFTLTISSVQAEDLAVYYCKQSYNLYTFGGGTKLEIK | – | – | – | – | – | – | – | ** (“**” - p < 0.01) | ** (“**” - p < 0.01) | ** (“**” - p < 0.01) | * (“*” - p < 0.05) | suppressed

From patent US8460669B2, “Compositions and methods for identifying response targets and treating flavivirus infection responses” (Academia Sinica, priority 2005, dated 2013)
